The text below walks through data of patent US20230117470A1, “SUBSTITUTED PYRAZOLE COMPOUNDS AS TOLL RECEPTOR INHIBITORS” (BRISTOL-MYERS SQUIBB COMPANY, priority 2019, published 2023).

What is called IC50 is the point on the concentration scale where inhibition reaches its midpoint. Low values mean higher potency, high ones lower potency.

Holding throughout (assay type): cell-based
One assay deals with T1, human TLR7 (Homo sapiens, UniProt Q9NYK1).
T1 construct: host or cells: HEK-Blue cells
T1 sequence (Q9NYK1 27-1049): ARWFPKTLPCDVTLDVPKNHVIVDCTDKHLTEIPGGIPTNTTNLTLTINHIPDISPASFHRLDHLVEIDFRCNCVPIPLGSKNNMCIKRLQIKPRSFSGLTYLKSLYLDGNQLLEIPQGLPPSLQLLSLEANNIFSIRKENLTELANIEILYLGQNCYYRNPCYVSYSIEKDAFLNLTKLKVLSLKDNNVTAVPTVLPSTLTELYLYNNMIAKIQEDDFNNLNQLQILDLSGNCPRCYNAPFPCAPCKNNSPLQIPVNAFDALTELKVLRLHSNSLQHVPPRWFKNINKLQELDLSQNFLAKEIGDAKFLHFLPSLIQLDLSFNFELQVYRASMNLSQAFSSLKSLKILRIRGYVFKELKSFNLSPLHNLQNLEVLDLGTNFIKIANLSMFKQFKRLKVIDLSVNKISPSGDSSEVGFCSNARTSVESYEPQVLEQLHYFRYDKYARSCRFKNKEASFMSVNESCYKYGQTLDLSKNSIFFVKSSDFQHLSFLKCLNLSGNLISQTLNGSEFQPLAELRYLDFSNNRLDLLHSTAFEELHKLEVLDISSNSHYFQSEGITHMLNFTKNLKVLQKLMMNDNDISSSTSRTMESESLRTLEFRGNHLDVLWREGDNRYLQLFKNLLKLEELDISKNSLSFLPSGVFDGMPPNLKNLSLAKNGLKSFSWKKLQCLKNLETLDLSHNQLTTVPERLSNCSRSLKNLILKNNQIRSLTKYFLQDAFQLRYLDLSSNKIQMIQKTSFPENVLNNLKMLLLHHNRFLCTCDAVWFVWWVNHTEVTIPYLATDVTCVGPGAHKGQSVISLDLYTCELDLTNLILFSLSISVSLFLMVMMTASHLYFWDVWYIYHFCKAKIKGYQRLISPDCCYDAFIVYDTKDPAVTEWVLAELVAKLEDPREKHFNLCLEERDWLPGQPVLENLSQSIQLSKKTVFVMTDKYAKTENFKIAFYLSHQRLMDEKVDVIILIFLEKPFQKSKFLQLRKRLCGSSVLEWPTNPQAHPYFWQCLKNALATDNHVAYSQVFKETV
The experiment in a line: TLR7 inhibition reporter assay (HEK-Blue cells, SEAP reporter, gardiquimod stimulation). The settings on record: HEK-Blue cells overexpressing human TLR7, SEAP reporter, gardiquimod 7.5 μM. In outline: (§1)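 30 min RT cpd pre-incubation (0.05 nM–50 μM final dose response) → agonist: gardiquimod 7.5 μM / R848 15.9 μM / ODN2006 5 nM for TLR7/8/9 resp. → 22 h, 37° C → SEAP via detection medium. % inhibition vs agonist+DMSO and reference inhibitor controls.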
(A reporter such as luciferase makes a cellular process visible.)

For another assay, the target named is T2, human TLR8 (Homo sapiens, UniProt Q9NR97).
T2 construct: host or cells: HEK-Blue cells
T2 sequence (Q9NR97 27-1041): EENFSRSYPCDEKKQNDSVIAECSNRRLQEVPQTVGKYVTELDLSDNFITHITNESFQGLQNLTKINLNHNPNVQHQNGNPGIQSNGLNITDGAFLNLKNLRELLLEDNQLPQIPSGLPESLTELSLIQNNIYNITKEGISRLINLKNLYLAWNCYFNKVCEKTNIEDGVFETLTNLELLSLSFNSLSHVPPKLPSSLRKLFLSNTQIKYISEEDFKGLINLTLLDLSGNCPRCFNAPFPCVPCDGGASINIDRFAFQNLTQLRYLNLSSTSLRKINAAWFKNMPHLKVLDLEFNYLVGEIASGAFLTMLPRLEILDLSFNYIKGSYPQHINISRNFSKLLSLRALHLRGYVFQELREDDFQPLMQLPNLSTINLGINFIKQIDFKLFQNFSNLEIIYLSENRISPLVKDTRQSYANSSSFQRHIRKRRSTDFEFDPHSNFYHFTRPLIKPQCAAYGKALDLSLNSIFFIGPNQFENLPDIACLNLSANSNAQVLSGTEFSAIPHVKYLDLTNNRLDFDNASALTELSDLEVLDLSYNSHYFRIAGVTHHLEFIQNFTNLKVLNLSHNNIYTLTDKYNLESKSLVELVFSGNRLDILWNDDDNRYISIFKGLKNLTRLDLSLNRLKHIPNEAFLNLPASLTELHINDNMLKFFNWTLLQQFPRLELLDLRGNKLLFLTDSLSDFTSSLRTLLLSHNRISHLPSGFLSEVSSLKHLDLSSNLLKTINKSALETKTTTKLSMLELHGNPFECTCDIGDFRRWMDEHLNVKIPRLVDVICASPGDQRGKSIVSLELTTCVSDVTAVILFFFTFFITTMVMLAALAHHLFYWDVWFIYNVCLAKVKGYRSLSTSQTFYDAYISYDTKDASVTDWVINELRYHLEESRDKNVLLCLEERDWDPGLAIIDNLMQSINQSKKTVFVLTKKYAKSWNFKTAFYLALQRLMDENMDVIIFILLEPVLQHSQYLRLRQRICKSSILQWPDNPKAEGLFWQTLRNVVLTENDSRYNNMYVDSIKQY
The experiment in a line: TLR8 inhibition reporter assay (HEK-Blue cells, SEAP reporter, R848 stimulation). The conditions noted are these: HEK-Blue cells overexpressing human TLR8, SEAP reporter, R848 15.9 μM. In outline:
as §1

The target of the next assay is T3, human TLR9 (Homo sapiens, UniProt Q9NR96).
T3 construct: host or cells: HEK-Blue cells
T3 sequence (Q9NR96 26-1032): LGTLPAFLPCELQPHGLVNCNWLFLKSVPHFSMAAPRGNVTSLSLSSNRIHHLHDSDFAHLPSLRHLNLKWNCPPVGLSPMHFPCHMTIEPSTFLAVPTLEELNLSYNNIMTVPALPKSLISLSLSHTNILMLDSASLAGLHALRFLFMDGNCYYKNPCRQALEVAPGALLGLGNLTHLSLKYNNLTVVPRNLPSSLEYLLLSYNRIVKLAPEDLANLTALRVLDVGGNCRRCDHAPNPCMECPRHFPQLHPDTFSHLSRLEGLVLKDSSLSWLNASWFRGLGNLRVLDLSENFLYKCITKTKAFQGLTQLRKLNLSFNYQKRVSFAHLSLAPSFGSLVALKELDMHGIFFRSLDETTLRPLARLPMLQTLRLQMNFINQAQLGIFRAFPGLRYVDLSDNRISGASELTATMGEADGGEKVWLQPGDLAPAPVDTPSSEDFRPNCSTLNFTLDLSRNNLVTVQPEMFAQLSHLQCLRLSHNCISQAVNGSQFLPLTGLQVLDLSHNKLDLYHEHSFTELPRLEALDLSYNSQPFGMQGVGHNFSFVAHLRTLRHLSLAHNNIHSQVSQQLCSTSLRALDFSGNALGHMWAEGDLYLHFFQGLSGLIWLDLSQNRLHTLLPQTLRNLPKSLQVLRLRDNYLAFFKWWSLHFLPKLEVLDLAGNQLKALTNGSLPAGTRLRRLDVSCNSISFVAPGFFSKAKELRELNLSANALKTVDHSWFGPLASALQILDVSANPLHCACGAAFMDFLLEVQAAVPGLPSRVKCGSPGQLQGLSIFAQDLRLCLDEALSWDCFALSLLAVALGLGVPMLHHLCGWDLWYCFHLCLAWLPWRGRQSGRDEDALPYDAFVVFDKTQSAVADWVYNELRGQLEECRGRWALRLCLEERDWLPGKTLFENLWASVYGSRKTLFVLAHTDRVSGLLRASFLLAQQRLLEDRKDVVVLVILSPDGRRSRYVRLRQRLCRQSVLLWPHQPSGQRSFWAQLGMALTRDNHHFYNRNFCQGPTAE
Nature of the assay: TLR9 inhibition reporter assay (HEK-Blue cells, SEAP reporter, ODN2006 stimulation). The conditions noted are these: HEK-Blue cells overexpressing human TLR9, SEAP reporter, ODN2006 5 nM. In outline:
as §1

For the compound `Cc1cc(-c2[nH]nc(-c3ccc4c(c3)CCN(C3COC3)C4)c2C(C)C)cn2ncnc12` [Example 247], the IC50 at human TLR7 amounted to 0.00587 µM; against human TLR8 it was 0.00442 µM; at human TLR9 it was 42.5 µM.
The corresponding values for `Cc1cc(-c2[nH]nc(C(=O)N[C@H]3CC[C@H](NC(C)CC(C)(C)C)CC3)c2C(C)C)cn2ncnc12` (stereo partly drawn) [Example 120] are 0.00419 µM, 0.0167 µM and more than 50 µM.
The corresponding values for `Cc1cc(-c2[nH]nc(C(=O)NC3CCN(C(=O)OC(C)(C)C)CC3)c2C(C)C)cn2ncnc12` [Example 1, tert-butyl 4-(4-isopropyl-5-(8-methyl-[1,2,4]triazolo[1,5-a]pyridin-6-yl)-1H-pyrazole-3-carboxamido)piperidine-1-carboxylate] are 0.00201 µM, 0.00814 µM and 0.76 µM.
The corresponding values for `Cc1cc(-c2[nH]nc(C3CCC(N4CCOCC4)CC3)c2C(C)C)cn2ncnc12` (single isomer, unassigned) [Example 291] are 0.00765 µM, 0.00039 µM and 16.8 µM.
Take `Cc1cc(-c2[nH]nc(C(=O)NCC3CN(C(C)C)CCO3)c2C(C)C)cn2ncnc12` (stereo not drawn) [Example 141]: the results for the IC50 against human TLR7, at human TLR8 and at human TLR9 were 0.00303 µM, 0.0135 µM and 12.8 µM, respectively.
The corresponding values for `Cc1cc(-c2[nH]nc(C(=O)N[C@H]3CC[C@H](NC4CCOCC4)CC3)c2C(C)C)cn2ncnc12` [Example 116] are 0.00311 µM, 0.00191 µM and 3.88 µM.
On the same counts, the results for `Cc1cc(-c2[nH]nc(C3CCC(NC4CCN(C(C)C)CC4)CC3)c2C(C)C)cn2ncnc12` (single isomer, unassigned) [Example 288] are 0.0152 µM, 0.00052 µM and 14.2 µM.
On the same counts, the results for `Cc1cc(-c2[nH]nc(C(N)=O)c2C(C)C)cn2ncnc12` [Example 29] are 0.0184 µM, 0.00191 µM and 0.216 µM.
`COc1cc(-c2[nH]nc(C(=O)NCC3CCNCC3)c2C(C)C)cn2ncnc12` [Example 62]: the half-maximal inhibitory concentration (IC50) at human TLR7 was 0.0886 µM; on human TLR8 it was 0.0223 µM; at human TLR9, more than 50 µM.
With `COc1c(C)c(-c2[nH]nc(-c3ccc(C4CCNCC4)cn3)c2C(C)C)cn2ncnc12` [Example 346], the IC50 was determined as 0.0063 µM on human TLR7, 0.00794 µM against human TLR8 and 19.2 µM on human TLR9.
The corresponding values for `Cc1cc(-c2[nH]nc(-c3nc4c(s3)CN(C(C)C)CC4)c2C(C)C)cn2ncnc12` [Example 252] are 0.0679 µM, 0.0358 µM and more than 50 µM.
The corresponding values for `Cc1cc(-c2[nH]nc(C(=O)NC3CCN(CC(=O)N(C)C)CC3)c2C(C)C)cn2ncnc12` [Example 176, N-(1-(2-(dimethylamino)-2-oxoethyl)piperidin-4-yl)-4-isopropyl-5-(8-methyl-[1,2,4]triazolo [1,5-a]pyridin-6-yl)-1H-pyrazole-3-carboxamide] are 0.0233 µM, 0.0237 µM and 9.58 µM.
On the same counts, the results for `Cc1cc(-c2[nH]nc(C3CCC(NCC(F)F)CC3)c2C(C)C)cn2ncnc12` (single isomer, unassigned) [Example 279, N-(2,2-difluoroethyl)-4-(4-isopropyl-5-(8-methyl-[1,2,4]triazolo[1,5-a]pyridin-6-yl)-1H-pyrazol-3-yl)cyclohexan-1-amine] are 0.011 µM, 0.00108 µM and 23.9 µM.
As for `Cc1ncc(CN[C@H]2CC[C@H](NC(=O)c3n[nH]c(-c4cc(C)c5ncnn5c4)c3C(C)C)CC2)cn1` [Example 104], the IC50 against human TLR7 turned out to be 0.00198 µM; against human TLR8, 0.00281 µM; on human TLR9, 5.6 µM.
`COc1cc(-c2[nH]nc(-c3cnc(C4CCN(C5CCOCC5)CC4)cn3)c2C(C)C)cn2ncnc12` [Example 380]: the IC50 turned out to be 0.0115 µM on human TLR7, 0.00507 µM at human TLR8 and 6.52 µM at human TLR9.
The corresponding values for `CNC1CCC(NC(=O)c2n[nH]c(-c3cc(C)c4ncnn4c3)c2C(C)C)CC1` (stereo not drawn) [Example 129] are 0.00134 µM, 0.00736 µM and 14.4 µM.
The corresponding values for `CCc1c(C(=O)NC2CCN(C)CC2)n[nH]c1-c1cc(C)c2ncnn2c1` [Example 181, 4-ethyl-5-(8-methyl-[1,2,4]triazolo[1,5-a]pyridin-6-yl)-N-(1-methylpiperidin-4-yl)-1H-pyrazole-3-carboxamide] are 0.00992 µM, 0.036 µM and 5.66 µM.
